Source: patent US20230022705A1, “Topical Delivery System Containing Cellulose Nanofibers” (ELC Management LLC, priority 2019, published 2023)
Like-named read-outs stand apart in the source and are kept apart here. One block for each molecule: values may come before it.

System: MatTek 300 skin (a skin model constructed from live cells)
Assay: Penetration study using MatTek skin, formulation with vs without cellulose nanofibers, UPLC analysis
Assay type: in vitro ADME
Procedure: A testing formulation with and without nanocellulose and various skin care actives was prepared. The formulation was prepared by mixing the Phase I components until all of the solids were dissolved (e.g., about 10-15 min). The Phase 2 components were added to the Phase 1 components and mixed until lump free (e.g., about 10 min). The Phase 3 components were pre-mixed until lump free and slowly added to the initial mixture and mixed until uniform (e.g., about 30 min). The Phase 4 components were mixed until uniform and slowly added to the initial mixture and mixed to uniformity (e.g., about 15-20 min). The Phase 5 components were premixed and then added to the mixture and mixed until uniform (e.g., about 15-20 min). The Phase 6 components were added to the mixture under Silverson to adjust the pH to about 5.5 to 6.5 to increase the stability of the AA2G and mixed until lump free (e.g., about 15-20 min). A penetration study was then performed using the base formula without nanocellulose as a control. […] In a 6-well plate, MatTek 300 skin (a skin model constructed from live cells, obtained from MatTek) was placed in the well with 2.00 mL of incubation medium (also provided by MatTek). The medium was removed, and 2.0 mL of phosphate buffer saline/propandiol (PBS/PPD) 1:1 mixture was added. The PBS/PPD mixture was then removed. This washing process was repeated twice. Then 2.0 mL of the PBS/PPD mixture was added as the collection phase. To the top of each skin, 400 μl of a sample was loaded. The skin was then incubated at 37° C. for 72 hours. Finally, the PBS/PPD collection phase was filtered through 0.45 μm PTFE syringe filter into high performance liquid chromatography (HPLC) vials. Waters ACQUITY H ultra-performance liquid chromatography (UPLC) was used to analyze the collected samples from the penetration study.

- penetration efficacy, formulation with cellulose nanofibers vs without (in words): significantly enhanced
Structure (SMILES): O=C1O[C@H]([C@@H](O)CO)C(O)=C1O[C@H]1O[C@H](CO)[C@@H](O)[C@H](O)[C@H]1O [AA2G, ascorbic acid 2-glucoside]

Structure (SMILES): O=C(c1ccccc1)c1ccccc1 [benzophenone]
- penetration efficacy, composition with nanocellulose vs without (in words) (benzophenone 4% (w/w of the total composition), sunscreen formulations): directionally reduced

- penetration efficacy, composition with nanocellulose vs without (in words): not increased
Structure (SMILES): OCCOc1ccccc1 [phenoxyethanol]

- penetration within the skin, composition with nanocellulose vs without (in words): reduced
- rate of release from composition with nanocellulose (in words): slower rate of release
Structure (SMILES): CC1=C(/C=C/C(C)=C/C=C/C(C)=C/CO)C(C)(C)CCC1 [Retinol, reference compound]

Structure (SMILES): COc1ccc(CCCc2ccc(O)cc2O)c(OC)c1C [UP302]
- penetration efficacy, formulation with cellulose nanofibers vs without (in words) (MatTek 300 skin, 37° C., 72 hours, PBS/PPD collection phase): modulated, reduced, and limited
